{
  "source": "ChEMBL document CHEMBL2429764",
  "about": "“Synthesis and cytotoxic activity of novel hybrid compounds between 2-alkylbenzofuran and imidazole” (Med Chem Res, 2013)",
  "data": [
    {"system": "SMMC-7721", "assay": "Cytotoxicity against human SMMC7721 cells after 48 hrs by MTT assay", "assay_type": "functional, cell-based", "settings": "SMMC-7721, 48 h", "units": {"IC50": "µM"}, "values": [
      {"molecule": "Cc1n(Cc2cc3ccccc3o2)cc[n+]1Cc1ccccc1Br", "IC50": 10.2},
      {"molecule": "CCc1n(Cc2cc3ccccc3o2)cc[n+]1CC(=O)c1ccc(Br)cc1", "IC50": 7.51},
      {"molecule": "Brc1ccccc1C[n+]1cn(Cc2cc3ccccc3o2)c2ccccc21", "IC50": 6.83},
      {"molecule": "O=C(C[n+]1cn(Cc2cc3ccccc3o2)c2ccccc21)c1ccc2ccccc2c1", "IC50": 6.44},
      {"molecule": "Brc1ccccc1C[n+]1ccn(Cc2cc3ccccc3o2)c1", "IC50": "> 40"},
      {"molecule": "Cc1n(Cc2cc3ccccc3o2)cc[n+]1CC(=O)c1ccc(Br)cc1", "IC50": "> 40"},
      {"molecule": "COc1ccc(C(=O)C[n+]2cn(Cc3cc4ccccc4o3)c3ccccc32)cc1", "IC50": 13.6},
      {"molecule": "O=C(C[n+]1cn(Cc2cc3ccccc3o2)c2ccccc21)c1ccc(Br)cc1", "IC50": 3.58},
      {"molecule": "O=C(C[n+]1ccn(Cc2cc3ccccc3o2)c1)c1ccc(Br)cc1", "IC50": 14.3},
      {"molecule": "c1ccc2oc(Cn3ccnc3)cc2c1", "IC50": "> 40"},
      {"molecule": "Cc1n(Cc2cc3ccccc3o2)cc[n+]1CC(=O)c1ccccc1", "IC50": "> 40"},
      {"molecule": "O=C(C[n+]1cn(Cc2cc3ccccc3o2)c2ccccc21)c1ccccc1", "IC50": "> 40"},
      {"molecule": "Cc1n(Cc2cc3ccccc3o2)cc[n+]1C(C(=O)c1ccccc1)c1ccccc1", "note": "(stereo not given)", "IC50": 11.3},
      {"molecule": "c1ccc2oc(Cn3cnc4ccccc43)cc2c1", "IC50": "> 40"},
      {"molecule": "O=C(C[n+]1ccn(Cc2cc3ccccc3o2)c1)c1ccccc1", "IC50": "> 40"},
      {"molecule": "CCc1n(Cc2cc3ccccc3o2)cc[n+]1CC(=O)c1ccc(O)cc1", "IC50": "> 40"},
      {"molecule": "O=C(c1ccccc1)C(c1ccccc1)[n+]1cn(Cc2cc3ccccc3o2)c2ccccc21", "note": "(stereo not given)", "IC50": 14.8}
    ]},
    {"system": "MCF7", "assay": "Cytotoxicity against human MCF7 cells after 48 hrs by MTT assay", "assay_type": "functional, cell-based", "settings": "MCF7, 48 h", "units": {"IC50": "µM"}, "values": [
      {"molecule": "Cc1n(Cc2cc3ccccc3o2)cc[n+]1Cc1ccccc1Br", "IC50": 2.24},
      {"molecule": "CCc1n(Cc2cc3ccccc3o2)cc[n+]1CC(=O)c1ccc(Br)cc1", "IC50": 4.47},
      {"molecule": "Brc1ccccc1C[n+]1cn(Cc2cc3ccccc3o2)c2ccccc21", "IC50": 7.48},
      {"molecule": "O=C(C[n+]1cn(Cc2cc3ccccc3o2)c2ccccc21)c1ccc2ccccc2c1", "IC50": 3.72},
      {"molecule": "Brc1ccccc1C[n+]1ccn(Cc2cc3ccccc3o2)c1", "IC50": "> 40"},
      {"molecule": "Cc1n(Cc2cc3ccccc3o2)cc[n+]1CC(=O)c1ccc(Br)cc1", "IC50": "> 40"},
      {"molecule": "COc1ccc(C(=O)C[n+]2cn(Cc3cc4ccccc4o3)c3ccccc32)cc1", "IC50": 14.6},
      {"molecule": "O=C(C[n+]1cn(Cc2cc3ccccc3o2)c2ccccc21)c1ccc(Br)cc1", "IC50": 2.46},
      {"molecule": "O=C(C[n+]1ccn(Cc2cc3ccccc3o2)c1)c1ccc(Br)cc1", "IC50": 18},
      {"molecule": "c1ccc2oc(Cn3ccnc3)cc2c1", "IC50": "> 40"},
      {"molecule": "Cc1n(Cc2cc3ccccc3o2)cc[n+]1CC(=O)c1ccccc1", "IC50": "> 40"},
      {"molecule": "O=C(C[n+]1cn(Cc2cc3ccccc3o2)c2ccccc21)c1ccccc1", "IC50": "> 40"},
      {"molecule": "Cc1n(Cc2cc3ccccc3o2)cc[n+]1C(C(=O)c1ccccc1)c1ccccc1", "note": "(stereo not given)", "IC50": 6.79},
      {"molecule": "c1ccc2oc(Cn3cnc4ccccc43)cc2c1", "IC50": "> 40"},
      {"molecule": "O=C(C[n+]1ccn(Cc2cc3ccccc3o2)c1)c1ccccc1", "IC50": "> 40"},
      {"molecule": "CCc1n(Cc2cc3ccccc3o2)cc[n+]1CC(=O)c1ccc(O)cc1", "IC50": "> 40"},
      {"molecule": "O=C(c1ccccc1)C(c1ccccc1)[n+]1cn(Cc2cc3ccccc3o2)c2ccccc21", "note": "(stereo not given)", "IC50": 9.83}
    ]},
    {"system": "A549", "assay": "Cytotoxicity against human A549 cells after 48 hrs by MTT assay", "assay_type": "functional, cell-based", "settings": "A549, 48 h", "units": {"IC50": "µM"}, "values": [
      {"molecule": "Cc1n(Cc2cc3ccccc3o2)cc[n+]1Cc1ccccc1Br", "IC50": 2.96},
      {"molecule": "CCc1n(Cc2cc3ccccc3o2)cc[n+]1CC(=O)c1ccc(Br)cc1", "IC50": 25.7},
      {"molecule": "Brc1ccccc1C[n+]1cn(Cc2cc3ccccc3o2)c2ccccc21", "IC50": 2.63},
      {"molecule": "O=C(C[n+]1cn(Cc2cc3ccccc3o2)c2ccccc21)c1ccc2ccccc2c1", "IC50": 6.73},
      {"molecule": "Brc1ccccc1C[n+]1ccn(Cc2cc3ccccc3o2)c1", "IC50": "> 40"},
      {"molecule": "Cc1n(Cc2cc3ccccc3o2)cc[n+]1CC(=O)c1ccc(Br)cc1", "IC50": "> 40"},
      {"molecule": "COc1ccc(C(=O)C[n+]2cn(Cc3cc4ccccc4o3)c3ccccc32)cc1", "IC50": 7.18},
      {"molecule": "O=C(C[n+]1cn(Cc2cc3ccccc3o2)c2ccccc21)c1ccc(Br)cc1", "IC50": 2.54},
      {"molecule": "O=C(C[n+]1ccn(Cc2cc3ccccc3o2)c1)c1ccc(Br)cc1", "IC50": 12.2},
      {"molecule": "c1ccc2oc(Cn3ccnc3)cc2c1", "IC50": "> 40"},
      {"molecule": "Cc1n(Cc2cc3ccccc3o2)cc[n+]1CC(=O)c1ccccc1", "IC50": "> 40"},
      {"molecule": "O=C(C[n+]1cn(Cc2cc3ccccc3o2)c2ccccc21)c1ccccc1", "IC50": "> 40"},
      {"molecule": "Cc1n(Cc2cc3ccccc3o2)cc[n+]1C(C(=O)c1ccccc1)c1ccccc1", "note": "(stereo not given)", "IC50": 14.8},
      {"molecule": "c1ccc2oc(Cn3cnc4ccccc43)cc2c1", "IC50": "> 40"},
      {"molecule": "O=C(C[n+]1ccn(Cc2cc3ccccc3o2)c1)c1ccccc1", "IC50": "> 40"},
      {"molecule": "CCc1n(Cc2cc3ccccc3o2)cc[n+]1CC(=O)c1ccc(O)cc1", "IC50": "> 40"},
      {"molecule": "O=C(c1ccccc1)C(c1ccccc1)[n+]1cn(Cc2cc3ccccc3o2)c2ccccc21", "note": "(stereo not given)", "IC50": 12.6}
    ]},
    {"system": "SW480", "assay": "Cytotoxicity against human SW480 cells after 48 hrs by MTT assay", "assay_type": "functional, cell-based", "settings": "SW480, 48 h", "units": {"IC50": "µM"}, "values": [
      {"molecule": "Cc1n(Cc2cc3ccccc3o2)cc[n+]1Cc1ccccc1Br", "IC50": 3.89},
      {"molecule": "CCc1n(Cc2cc3ccccc3o2)cc[n+]1CC(=O)c1ccc(Br)cc1", "IC50": 1.34},
      {"molecule": "Brc1ccccc1C[n+]1cn(Cc2cc3ccccc3o2)c2ccccc21", "IC50": 14.7},
      {"molecule": "O=C(C[n+]1cn(Cc2cc3ccccc3o2)c2ccccc21)c1ccc2ccccc2c1", "IC50": 17.1},
      {"molecule": "Brc1ccccc1C[n+]1ccn(Cc2cc3ccccc3o2)c1", "IC50": "> 40"},
      {"molecule": "Cc1n(Cc2cc3ccccc3o2)cc[n+]1CC(=O)c1ccc(Br)cc1", "IC50": "> 40"},
      {"molecule": "COc1ccc(C(=O)C[n+]2cn(Cc3cc4ccccc4o3)c3ccccc32)cc1", "IC50": 23.1},
      {"molecule": "O=C(C[n+]1cn(Cc2cc3ccccc3o2)c2ccccc21)c1ccc(Br)cc1", "IC50": 4.2},
      {"molecule": "O=C(C[n+]1ccn(Cc2cc3ccccc3o2)c1)c1ccc(Br)cc1", "IC50": "> 40"},
      {"molecule": "c1ccc2oc(Cn3ccnc3)cc2c1", "IC50": "> 40"},
      {"molecule": "Cc1n(Cc2cc3ccccc3o2)cc[n+]1CC(=O)c1ccccc1", "IC50": "> 40"},
      {"molecule": "O=C(C[n+]1cn(Cc2cc3ccccc3o2)c2ccccc21)c1ccccc1", "IC50": "> 40"},
      {"molecule": "Cc1n(Cc2cc3ccccc3o2)cc[n+]1C(C(=O)c1ccccc1)c1ccccc1", "note": "(stereo not given)", "IC50": 9.96},
      {"molecule": "c1ccc2oc(Cn3cnc4ccccc43)cc2c1", "IC50": "> 40"},
      {"molecule": "O=C(C[n+]1ccn(Cc2cc3ccccc3o2)c1)c1ccccc1", "IC50": "> 40"},
      {"molecule": "CCc1n(Cc2cc3ccccc3o2)cc[n+]1CC(=O)c1ccc(O)cc1", "IC50": "> 40"},
      {"molecule": "O=C(c1ccccc1)C(c1ccccc1)[n+]1cn(Cc2cc3ccccc3o2)c2ccccc21", "note": "(stereo not given)", "IC50": 9.75}
    ]},
    {"system": "HL-60", "assay": "Cytotoxicity against human HL60 cells after 48 hrs by MTT assay", "assay_type": "functional, cell-based", "settings": "HL-60, 48 h", "units": {"IC50": "µM"}, "values": [
      {"molecule": "Cc1n(Cc2cc3ccccc3o2)cc[n+]1Cc1ccccc1Br", "IC50": 1.28},
      {"molecule": "CCc1n(Cc2cc3ccccc3o2)cc[n+]1CC(=O)c1ccc(Br)cc1", "IC50": 1.87},
      {"molecule": "Brc1ccccc1C[n+]1cn(Cc2cc3ccccc3o2)c2ccccc21", "IC50": 2.48},
      {"molecule": "O=C(C[n+]1cn(Cc2cc3ccccc3o2)c2ccccc21)c1ccc2ccccc2c1", "IC50": 3.62},
      {"molecule": "Brc1ccccc1C[n+]1ccn(Cc2cc3ccccc3o2)c1", "IC50": "> 40"},
      {"molecule": "Cc1n(Cc2cc3ccccc3o2)cc[n+]1CC(=O)c1ccc(Br)cc1", "IC50": "> 40"},
      {"molecule": "COc1ccc(C(=O)C[n+]2cn(Cc3cc4ccccc4o3)c3ccccc32)cc1", "IC50": 3.91},
      {"molecule": "O=C(C[n+]1cn(Cc2cc3ccccc3o2)c2ccccc21)c1ccc(Br)cc1", "IC50": 1.69},
      {"molecule": "O=C(C[n+]1ccn(Cc2cc3ccccc3o2)c1)c1ccc(Br)cc1", "IC50": 10.3},
      {"molecule": "c1ccc2oc(Cn3ccnc3)cc2c1", "IC50": "> 40"},
      {"molecule": "Cc1n(Cc2cc3ccccc3o2)cc[n+]1CC(=O)c1ccccc1", "IC50": "> 40"},
      {"molecule": "O=C(C[n+]1cn(Cc2cc3ccccc3o2)c2ccccc21)c1ccccc1", "IC50": "> 40"},
      {"molecule": "Cc1n(Cc2cc3ccccc3o2)cc[n+]1C(C(=O)c1ccccc1)c1ccccc1", "note": "(stereo not given)", "IC50": 4.44},
      {"molecule": "c1ccc2oc(Cn3cnc4ccccc43)cc2c1", "IC50": "> 40"},
      {"molecule": "O=C(C[n+]1ccn(Cc2cc3ccccc3o2)c1)c1ccccc1", "IC50": "> 40"},
      {"molecule": "CCc1n(Cc2cc3ccccc3o2)cc[n+]1CC(=O)c1ccc(O)cc1", "IC50": "> 40"},
      {"molecule": "O=C(c1ccccc1)C(c1ccccc1)[n+]1cn(Cc2cc3ccccc3o2)c2ccccc21", "note": "(stereo not given)", "IC50": 6.77}
    ]}
  ]
}
